Experiment [1] concerns human duodenum monolayer culture. Kind of experiment: Sustained inhibition of apical acid secretion in human organoid monolayer cell cultures (duodenum). The format is cell-based. The note with it: for inhibition at 1 µM: Homo sapiens. The method, then:
Basal media (BM) consisted of advanced DMEM/F12 containing 10 mM HEPES Invitrogen, 15630-080), 1:100 Glutamax (Invitrogen, 35050-061), and 1:100 penicillin/streptomycin (Invitrogen, 15140-122). Supplemented basal media (SBM) contained 1:100 N2 (Invitrogen, 17502-048), 1:50 B27 (Invitrogen, 12587-010), 1 mM N-acetylcysteine (Sigma, A9165), and 10 nM [Leu15]-gastrin I (Sigma, G9145). Growth factors used included 50 ng per mL mouse EGF (Peprotech, 315-09), 100 ng per mL mouse noggin (Peprotech, 250-38), 500 ng per mL human R-spondin 1 (R&D, 4645-RS), 100 ng per mL mouse Wnt-3a (R&D, 1324-WN), 20 μM. Y-27632 (Tocris, 1254), 10 mM nicotinamide (Sigma, N0636), 500 nM A83-01 (Tocris, 2939), 10 μM SB202190 (Tocris, 1264). Transwells were 0.4 μm pore polyester membrane 24-well Transwell inserts (Corning). Cultures were incubated at 37° C. in 5% CO2.
Each human ileum monolayer culture well was washed twice with fresh SBM on the apical side on day 6 before compound dosing. All compound stocks were 10 mM dissolved in DMSO. Each compound stock was individually mixed with fresh SBM to reach final compound concentration 1 μM and dosed only on the apical side of the monolayer (total volume 200 μl). DMSO at the equivalent concentration was used as the vehicle control. Duplicate wells were dosed for each compound. On day 8, apical media pH was measured by pH electrode, to determine the ability of example compounds to produce sustained inhibition of NHE3 activity in a human monolayer culture system by preventing proton secretion into the apical compartment.
Human duodenum organoids were cultured in WENRNAS (Wnt, EGF, noggin, R-spondin1, Nicotinamide, A83-01, SB202190) and typically grown for 7-12 days before being used to plate monolayer cultures. On day 0, organoid cultures embedded in Matrigel were treated with TrypLE Express to break organoids into small pieces and/or single cells. The cells were resuspended to 0.5×10^6 cells/mL in SBM containing WENRAY (Wnt, EGF, noggin, R-spondin1, A83-01, Y-27632). Following this step, 200 μL of cell suspension was plated into the apical side of a 24-well Transwell (100,000 cells/well) and 600 μL of SBM with WENRAY was added to the basolateral side. Duodenum cells were differentiated with ENA (EGF, noggin, A83-01) on day 3. The color of apical compartment turns from pink or orange to yellow due to the increase in NHE3 expression after differentiation.

In a further experiment the target is T1, NHE3 (Homo sapiens, UniProt P48764).
T1 construct: expressed in transfected cells
T1 sequence (P48764 26-834): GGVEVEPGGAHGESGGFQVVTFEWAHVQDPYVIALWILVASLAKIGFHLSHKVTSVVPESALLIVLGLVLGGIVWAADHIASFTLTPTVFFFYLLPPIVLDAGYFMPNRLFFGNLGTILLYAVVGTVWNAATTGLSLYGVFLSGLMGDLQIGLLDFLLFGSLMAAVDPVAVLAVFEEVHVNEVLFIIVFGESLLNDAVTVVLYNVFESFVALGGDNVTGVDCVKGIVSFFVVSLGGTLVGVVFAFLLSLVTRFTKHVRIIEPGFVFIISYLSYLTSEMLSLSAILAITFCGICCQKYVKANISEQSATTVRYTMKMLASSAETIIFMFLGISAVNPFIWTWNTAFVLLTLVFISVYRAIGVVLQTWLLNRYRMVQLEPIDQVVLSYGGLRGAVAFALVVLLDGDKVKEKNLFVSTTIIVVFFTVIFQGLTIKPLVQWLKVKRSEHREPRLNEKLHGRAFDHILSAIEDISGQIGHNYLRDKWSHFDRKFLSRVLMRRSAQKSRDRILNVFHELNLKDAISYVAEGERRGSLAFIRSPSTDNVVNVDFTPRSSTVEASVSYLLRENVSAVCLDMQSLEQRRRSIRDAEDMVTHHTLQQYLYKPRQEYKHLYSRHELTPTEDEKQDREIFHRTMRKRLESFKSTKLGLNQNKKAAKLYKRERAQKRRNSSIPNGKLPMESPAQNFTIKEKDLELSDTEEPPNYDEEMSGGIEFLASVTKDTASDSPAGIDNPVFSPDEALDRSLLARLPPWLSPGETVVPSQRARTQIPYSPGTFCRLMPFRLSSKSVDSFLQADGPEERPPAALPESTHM
T1 sequence (Q99653 2-195 partner limits assumed): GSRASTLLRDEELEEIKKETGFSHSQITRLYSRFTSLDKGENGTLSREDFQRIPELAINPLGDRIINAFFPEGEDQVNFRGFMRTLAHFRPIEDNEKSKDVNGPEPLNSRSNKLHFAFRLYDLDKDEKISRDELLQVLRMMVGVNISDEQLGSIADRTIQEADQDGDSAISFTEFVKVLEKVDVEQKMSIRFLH
Kind of experiment: Cell-based assay of NHE-3 activity (pre-incubation inhibition), human. The note with it: human Preincubation; for pIC50: 0-30 μM test compound. Put shortly: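 PS120 fibroblasts stably expressing human NHE3 and NHERF2, loaded 30 min at 37 °C with 5 μM BCECF-AM in NH4Cl buffer, then acidified 10 min at room temperature in Na+-free buffer with 0–30 μM compound. Initial rate of BCECF fluorescence ratio change (FLIPR) per minute taken as Na+/H+ activity.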

The text below walks through data of US11242337B2, “Compounds useful for treating gastrointestinal tract disorders” (Ardelyx, Inc., priority 2017, dated 2022).

For the compound “3-[2-(2-[2-[(4-[[(1S,2S)-4,6-Dichloro-2-[(3R)-3-[methyl(propan-2-yl)amino]piperidin-1-yl]-2,3-dihydro-1H-inden-1-yl]oxy]benzene) sulfonamido]ethoxy]ethoxy)ethyl]-1-[4-([[2-(2-[2-[(4-[[(1S,2S)-4,6-dichloro-2-[(3R)-3-[methyl(propan-2-yl)amino]piperidin-1-yl]-2,3-dihydro-1H-inden-1-yl]oxy]benzene)sulfonamido]ethoxy]ethoxy)ethyl]carbamoyl]amino)butyl]urea; bis(trifluoroacetic acid) [Example 78]”, the “% inhibition (duodenum)” value in experiment [1] (1 μM apical, inhibition of apical acid secretion vs DMSO) was “C (>70%)”. Besides, the “% inhibition” value on NHE3 is on record as “C (>70%)”.

Take `Cc1cc(S(=O)(=O)NCCOCCOCCNC(=O)NCCCCNC(=O)NCCOCCOCCNS(=O)(=O)c2ccc(O[C@H]3c4cc(Cl)cc(C)c4C[C@@H]3N(C)C)c(C)c2)ccc1O[C@H]1c2cc(Cl)cc(C)c2C[C@@H]1N(C)C` [Example 17, 3-[2-(2-[2-[(4-[[(1S,2S)-6-Chloro-2-(dimethylamino)-4-methyl-2,3-dihydro-1H-inden-1-yl]oxy]-3-methylbenzene)sulfonamido]ethoxy]ethoxy)ethyl]-1-[4-([[2-(2-[2-[(4-[[(1S,2S)-6-chloro-2-(dimethylamino)-4-methyl-2,3-dihydro-1H-inden-1-yl]oxy]-3-methylbenzene)sulfonamido]ethoxy]ethoxy)ethyl]carbamoyl]amino)butyl]urea]: the inhibition (usually how much of the control response was suppressed) at 1 µM in experiment [1] lay within 50 to 70%. On NHE3, the “% inhibition” value is “C (>70%)” and the pIC50 entry is recorded as “C (NHE3 pIC50 > 7)”.

The compound `CN(C)[C@H]1Cc2c(Cl)cc(Cl)cc2[C@@H]1Oc1ccc(S(=O)(=O)NCCOCCOCCNC(=O)NCCCCNC(=O)NCCOCCOCCNS(=O)(=O)c2ccc(O[C@H]3c4cc(Cl)cc(Cl)c4C[C@@H]3N(C)C)c(F)c2)cc1F` [Example 23, 3-[2-(2-[2-[(4-[[(1S,2S)-4,6-Dichloro-2-(dimethylamino)-2,3-dihydro-1H-inden-1-yl]oxy]-3-fluorobenzene)sulfonamido]ethoxy]ethoxy)ethyl]-1-[4-([[2-(2-[2-[(4-[[(1S,2S)-4,6-dichloro-2-(dimethylamino)-2,3-dihydro-1H-inden-1-yl]oxy]-3-fluorobenzene)sulfonamido]ethoxy]ethoxy)ethyl]carbamoyl]amino)butyl]urea; bis(trifluoroacetic acid)] gave an inhibition at 1 µM in experiment [1] of 50 to 70%. At NHE3, the “% inhibition” value is on record as “C (>70%)” and the pIC50 entry is reported as “C (NHE3 pIC50 > 7)”.

The compound `Cc1cc(Cl)cc2c1C[C@H](N(C)C)[C@H]2Oc1ccc(S(=O)(=O)NCCOCCOCCNC(=O)NCCCCNC(=O)NCCOCCOCCNS(=O)(=O)c2ccc(O[C@H]3c4cc(Cl)cc(C)c4C[C@@H]3N(C)C)c(F)c2)cc1F` [Example 24, 3-[2-(2-[2-[(4-[[(1S,2S)-6-Chloro-2-(dimethylamino)-4-methyl-2,3-dihydro-1H-inden-1-yl]oxy]-3-fluorobenzene)sulfonamido]ethoxy]ethoxy)ethyl]-1-[4-([[2-(2-[2-[(4-[[(1S,2S)-6-chloro-2-(dimethylamino)-4-methyl-2,3-dihydro-1H-inden-1-yl]oxy]-3-fluorobenzene)sulfonamido]ethoxy]ethoxy)ethyl]carbamoyl]amino)butyl]urea] had an inhibition at 1 µM in experiment [1] of 50 to 70%. In addition, the “% inhibition” value at NHE3 is given as “C (>70%)”.

For the compound `Cc1cc(S(=O)(=O)NCCOCCOCCNC(=O)NCCCCNC(=O)NCCOCCOCCNS(=O)(=O)c2ccc(O[C@H]3c4cc(Cl)cc(Cl)c4C[C@@H]3N3CCC[C@@H](N(C)C)C3)c(C)c2)ccc1O[C@H]1c2cc(Cl)cc(Cl)c2C[C@@H]1N1CCC[C@@H](N(C)C)C1` [Example 26, 3-[2-(2-[2-[(4-[[(1S,2S)-4,6-Dichloro-2-[(3R)-3-(dimethylamino)piperidin-1-yl]-2,3-dihydro-1H-inden-1-yl]oxy]-3-methylbenzene)sulfonamido]ethoxy]ethoxy)ethyl]-1-[4-([[2-(2-[2-[4-[[(1S,2S)-4,6-dichloro-2-[(3R)-3-(dimethylamino)piperidin-1-yl]-2,3-dihydro-1H-inden-1-yl]oxy]-3-methylbenzenesulfonamido]ethoxy]ethoxy)ethyl]carbamoyl]amino)butyl]urea; bis(trifluoroacetic acid)], the inhibition at 1 µM in experiment [1] lay in the range of 50 to 70%. Further, the “% inhibition” value on NHE3 is reported as “C (>70%)”.

Compound `Cc1cc(Cl)cc2c1C[C@H](N1CCC[C@@H](N(C)C)C1)[C@H]2Oc1ccc(S(=O)(=O)NCCOCCOCCNC(=O)NCCCCNC(=O)NCCOCCOCCNS(=O)(=O)c2ccc(O[C@H]3c4cc(Cl)cc(C)c4C[C@@H]3N3CCC[C@@H](N(C)C)C3)cc2)cc1` [Example 28, 3-[2-(2-[2-[(4-[[(1S,2S)-6-Chloro-2-[(3R)-3-(dimethylamino)piperidin-1-yl]-4-methyl-2,3-dihydro-1H-inden-1-yl]oxy]benzene)sulfonamido]ethoxy]ethoxy)ethyl]-1-[4-([[2-(2-[2-[(4-[[(1S,2S)-6-chloro-2-[(3R)-3-(dimethylamino)piperidin-1-yl]-4-methyl-2,3-dihydro-1H-inden-1-yl]oxy]benzene)sulfonamido]ethoxy]ethoxy)ethyl]carbamoyl]amino)butyl]urea; bis(trifluoroacetic acid)] came in with an inhibition at 1 µM in experiment [1] of 50 to 70%. For the same compound, at NHE3, the “% inhibition” value was “C (>70%)” and the pIC50 entry was “C (NHE3 pIC50 > 7)”.

Consider `Cc1cc(S(=O)(=O)NCCOCCOCCNC(=O)NCCCCNC(=O)NCCOCCOCCNS(=O)(=O)c2ccc(O[C@H]3c4cc(Cl)cc(C)c4C[C@@H]3N3CCC[C@@H](N(C)C)C3)c(C)c2)ccc1O[C@H]1c2cc(Cl)cc(C)c2C[C@@H]1N1CCC[C@@H](N(C)C)C1` [Example 29], for which, in experiment [1], the inhibition at 1 µM is above 70%. For the same compound, at NHE3, the “% inhibition” value is given as “C (>70%)” and the pIC50 entry is reported as “C (NHE3 pIC50 > 7)”.

In experiment [1], `O=C(NCCCCNC(=O)NCCOCCOCCNS(=O)(=O)c1ccc(O[C@H]2c3cc(Cl)cc(Cl)c3C[C@@H]2N2CCNCC2)cc1)NCCOCCOCCNS(=O)(=O)c1ccc(O[C@H]2c3cc(Cl)cc(Cl)c3C[C@@H]2N2CCNCC2)cc1` [Example 31, 3-[2-(2-[2-[(4-[[(1S,2S)-4,6-Dichloro-2-(piperazin-1-yl)-2,3-dihydro-1H-inden-1-yl]oxy]benzene)sulfonamido]ethoxy]ethoxy)ethyl]-1-[4-([[2-(2-[2-[(4-[[(1S,2S)-4,6-dichloro-2-(piperazin-1-yl)-2,3-dihydro-1H-inden-1-yl]oxy]benzene)sulfonamido]ethoxy]ethoxy)ethyl]carbamoyl]amino)butyl]urea; bis(trifluoroacetic acid)] yielded an inhibition at 1 µM above 70%. Also, on NHE3, the “% inhibition” value was “C (>70%)”.
